Test system: C. reinhardtii cells
Test: Cellular uptake mechanism of triple nanocomplexes with the endocytosis inhibitor wortmannin
Format: cell-based, Chlamydomonas reinhardtii
Settings: wortmannin 33 µM pretreatment 1 h, then pVEC-R6A/Cy3-labeled DNA/SV40 nanocomplex 1 h at 25°C; control TAP with 5% DMSO; microplate reader
Description: To evaluate the cellular uptake mechanism of the triple nanocomplexes in microalgae, a fluorescence‐based assay was performed with wortmannin (Sigma‐Aldrich, USA) to determine the potential involvement of endocytosis in the process. A volume of 100 µL of C. reinhardtii cells (1.5 × 10^7 cells mL^−1) per well was seeded in a 96‐well plate with wortmannin at a final concentration of 33 µM. Cells treated with TAP medium containing 5% dimethyl sulfoxide were used as controls. […] Finally, the Cy3 fluorescence intensity of the samples was measured at 532 nm using a TECAN microplate reader (Bionics, Korea).

## COC[C@H]1OC(=O)c2coc3c2[C@@]1(C)C1=C(C3=O)[C@@H]2CCC(=O)[C@@]2(C)C[C@H]1OC(C)=O [wortmannin]
  Reduction of normalized Cy3/chlorophyll a level compared to control: 50%

— article PMC12235220, “Cell‐Penetrating Peptide‐Based Triple Nanocomplex Enables Efficient Nuclear Gene Delivery in Chlamydomonas reinhardtii” (Biotechnology and Bioengineering, 2025)
